Paper PMC8878324, “Evaluation of New Antimicrobial Agents Based on tris(1H-Indol-3-yl)methylium Salts: Activity, Toxicity, Suppression of Experimental Sepsis in Mice” (Pharmaceuticals, 2022)

Legend:
Type in all cases: in vivo
S. aureus 10 = experiment: Model of staphylococcal sepsis in mice; settings: for Death (%) / Survival Rate (%): 14 days; for Dead animals/survivors: 3 mg/kg; for ED50: Staphylococcus aureus, 10, iv, 1 h
Protocol: To determine the ability of drugs to suppress staphylococcal sepsis, a clinical isolate of S. aureus 10, lacking drug resistance and adapted for use in animals, was used. Animals, divided into several experimental groups, were intravenously infected with a lethal dose of S. aureus (0.1 mL each) (Groups 1–5). […] Along with the testing of compounds of the trisndolylmethylium class, a similar experiment was carried out with levofloxacin, taken as a reference drug for a separate group of animals (Group 4). The control group of animals received an intravenous injection of 5% glucose solution instead of the tested preparations (Group 5). Another control group, which also received a single injection of 5% glucose solution, consisted of animals that were not exposed to infection (Group 6). To study each drug, 110–150 animals were required, which were divided into small subgroups of 10 mice each to test various doses of the compounds studied. The number of dead animals and the time of their death were recorded daily, and the appearance of the animals and their weight were assessed. The duration of the experiment was 14 days.
(§1) The study was conducted on adult female SHK mice (18–20 g) obtained from the animal breeding unit of the FMBA (Scientific Center for Biomedical Technologies of the Federal Biomedical Agency, Moscow, Russia). The animals were randomly divided into groups (n = 6 for the study of acute toxicity, n = 10 (or 8) to study the efficacy of suppressing staphylococcal sepsis). The study of the effectiveness of drugs in the treatment of staphylococcal sepsis required the use of 110–175 mice for each drug, 10 animals per group. The animal study was approved by the Ethics of Animal Experimentation of Gause Institute of New Antibiotics (protocol No 13/2019).
The experiment used a strain of S. aureus 10, having no drug resistance and adapted for use in animals. Initially, the 100% lethal dose (LD100) was determined for this pathogen strain in SHK mice, i.e., the dose of the pathogen at which the death of 100% of the animals was recorded. LD100 dose of staphylococcus detected in the experiment was 8.0 × 10^8 CFU/mouse, which was then used for infecting animals.
The chemotherapeutic efficacy of tris(indolyl)methane derivatives was determined in a model of staphylococcal sepsis in mice. Mice of the SHK colony, weighing 18–20 g, were infected intravenously (into the tail vein) with a lethal dose of staphylococcus (0.1 mL of solution). One hour after infection, mice were injected intravenously (0.2 mL of solution each) with the tested tris(indolyl)methane derivatives in the range of doses from 0.1 to 40 mg/kg. For tested drugs, we used solutions prepared in 5% glucose solution. The study of the effectiveness of each drug was conducted on 115–155 mice (10 mice per group). The duration of the experiment was 14 days. The number of dead animals and the time of their death were recorded daily, and the body weight of the animals was recorded three times a week. Their feed intake was monitored, and clinical signs of animal health were assessed daily.
To determine the effectiveness of the tested drugs, 50% effective doses (ED50) were used, which was determined by the Behrens method (frequency accumulation method), as well as by the Litchfield and Wilcoxon method using the StatPlus 2006 software. For all data, the mean and standard deviation were calculated. The differences were defined as significant at p ≤ 0.05.

[1] = Acute toxicity study, intravenous; settings: female, SHK, mouse, in vivo, mice, single intravenous; for MTD: read-out: MTD (LD10)
Protocol: (§2) In toxicological experiments with each compound, 72 to 108 animals were used and divided into 8 or 9 experimental groups (6 to 12 mice each), in which the animals received various doses of the tested compounds. There was also a control group of animals, which was injected with the corresponding solvent instead of the experimental compound, and a control group of intact animals. The prepared substances were injected into the animals intravenously (into the tail vein); the dose range was from 1.0 to 100 mg/kg.
as §1
(§3) To prepare solutions of preparations suitable for intravenous administration, dried test compounds with a purity of at least 99% were dissolved in a 5% glucose solution for intravenous administration at a concentration of 3.2 or 6.4 mg/mL. The solutions were sterilized by filtration through Sterivex 0.22 μm filters (Millipore, Burlington, MA, USA). Sterile solutions of drugs with a reduced concentration were then prepared, which allowed for the introduction ofvarious doses of drugs with the same volume (0.2 mL) of solutions. The test preparations were stored at a temperature no higher than 25 °C.
(§4) The study of acute toxicity of each drug was conducted on 72 mice (6 mice per group) using a solution of the test drug prepared in 5% glucose solution. The drug was injected into the tail vein of the animals (0.2 mL) using a syringe with a metal needle in a dose range of 1.0 mg/kg to 70 mg/kg.
(§5) From the first day after administration, the animals were under continuous observation. The number of dead animals and the time of their death were recorded daily. The body weight of the animals and their food consumption was recorded once a week, and the clinical signs of the animals’ health were assessed daily. The duration of observation of the animals was at least 30 days after the last death of the animal. Doses characterizing the toxicity of drugs were calculated by the Litchfield and Wilcoxon method using the StatPlus 2006 software AnalystSoft StatPlus—statistical analysis program, version 2006 (http://www.analystsoft.com/, accessed 11 January 2022). The mean and standard deviation were calculated for all data. The differences are defined as significant at p ≤ 0.05.

SHK mice = experiment: Acute toxicity study, intravenous; settings: for LD16 / LD84 / LD100: single intravenous
Protocol: as §2, §1, §3, §4, §5

[2] = 3 mg/kg i.v., Double administration
[3] = single i.v. 3.0 mg/kg 1 h after infection
[4] = single i.v. 5.0 mg/kg 1 h after infection
[5] = single i.v. 7.0 mg/kg 1 h after infection
[6] = single i.v. 9.0 mg/kg 1 h after infection
[7] = single i.v. 11.0 mg/kg 1 h after infection
[8] = single i.v. 13.0 mg/kg 1 h after infection
[9] = single i.v. 10.0 mg/kg 1 h after infection
[10] = single i.v. 15.0 mg/kg 1 h after infection
[11] = single i.v. 20.0 mg/kg 1 h after infection
[12] = single i.v. 25.0 mg/kg 1 h after infection
[13] = single i.v. 30.0 mg/kg 1 h after infection
[14] = single i.v. 35.0 mg/kg 1 h after infection
[15] = single i.v. 1.0 mg/kg 1 h after infection
[16] = single i.v. 2.0 mg/kg 1 h after infection
[17] = single i.v. 4.0 mg/kg 1 h after infection
[18] = single i.v. 6.0 mg/kg 1 h after infection

OCCCCCn1cc([C+](c2cn(CCCCCO)c3ccccc23)c2cn(CCCCCO)c3ccccc23)c2ccccc21.[Cl-] [Compound 1, tris(1-(5-Hydroxypentyl)-1H-indol-3-yl) methylium chloride]
Death (%) (S. aureus 10; [2]): 75%
Survival Rate (%) (S. aureus 10; [2]): 25%
Dead animals/survivors (S. aureus 10; Double, day 0): 0/8
Dead animals/survivors (S. aureus 10; Double, day 3): 0/8
Dead animals/survivors (S. aureus 10; Double, day 4): 1/7
Dead animals/survivors (S. aureus 10; Double, day 6): 3/5
Dead animals/survivors (S. aureus 10; Double, day 7): 4/4
Dead animals/survivors (S. aureus 10; Double, day 8): 4/4
Dead animals/survivors (S. aureus 10; Double, day 9): 5/3
Dead animals/survivors (S. aureus 10; Double, day 10): 6/2
Dead animals/survivors (S. aureus 10; Double, day 12): 6/2
Dead animals/survivors (S. aureus 10; Double, day 14): 6/2
Dead animals/survivors (S. aureus 10; One-time, day 0): 0/8
Dead animals/survivors (S. aureus 10; One-time, day 3): 1/7
Dead animals/survivors (S. aureus 10; One-time, day 4): 2/6
Dead animals/survivors (S. aureus 10; One-time, day 6): 4/4
Dead animals/survivors (S. aureus 10; One-time, day 7): 5/3
Dead animals/survivors (S. aureus 10; One-time, day 8): 5/3
Dead animals/survivors (S. aureus 10; One-time, day 9): 6/2
Dead animals/survivors (S. aureus 10; One-time, day 10): 7/1
Dead animals/survivors (S. aureus 10; One-time, day 12): 7/1
Dead animals/survivors (S. aureus 10; One-time, day 14): 7/1
Dead animals/survivors (S. aureus 10; Three-fold, day 0): 0/8
Dead animals/survivors (S. aureus 10; Three-fold, day 3): 0/8
Dead animals/survivors (S. aureus 10; Three-fold, day 4): 1/7
Dead animals/survivors (S. aureus 10; Three-fold, day 6): 2/6
Dead animals/survivors (S. aureus 10; Three-fold, day 7): 3/5
Dead animals/survivors (S. aureus 10; Three-fold, day 8): 3/5
Dead animals/survivors (S. aureus 10; Three-fold, day 9): 4/4
Dead animals/survivors (S. aureus 10; Three-fold, day 10): 5/3
Dead animals/survivors (S. aureus 10; Three-fold, day 12): 5/3
Dead animals/survivors (S. aureus 10; Three-fold, day 14): 5/3
ED50 (S. aureus 10): 7.6 mg/kg
survival rate (S. aureus 10; dose of 9–11 mg/kg, single i.v.): ~40%
Death (%) (S. aureus 10; [3]): 87.5%
Survival Rate (%) (S. aureus 10; [3]): 12.5%
Death (%) (S. aureus 10; [4]): 75%
Survival Rate (%) (S. aureus 10; [4]): 25%
Death (%) (S. aureus 10; [5]): 75%
Survival Rate (%) (S. aureus 10; [5]): 25%
Death (%) (S. aureus 10; [6]): 62.5%
Survival Rate (%) (S. aureus 10; [6]): 37.5%
Death (%) (S. aureus 10; [7]): 62.5%
Survival Rate (%) (S. aureus 10; [7]): 37.5%
Death (%) (S. aureus 10; [8]): 75%
Survival Rate (%) (S. aureus 10; [8]): 25%
LD50 [1]: 26.2 mg/kg
MTD [1]: 22.6 mg/kg
time of death of animals after drug administration (SHK mice; intravenous, lethal doses): ≤ 15 min
LD16 (SHK mice): 23.4 mg/kg
LD84 (SHK mice): 28.9 mg/kg
LD100 (SHK mice): 30.2 mg/kg

CCCn1cc([C+](c2cn(CCC)c3ccccc23)c2cn(C3=C(N)C(=O)NC3=O)c3ccccc23)c2ccccc21.[Cl-] [Compound 2, (1-(4-Amino-2,5-dioxo-2,5-dihydro-1H-pyrrol-3-yl)-1H-indol-3-yl)bis(1-propyl-1H-indol-3-yl) methylium chloride]
ED50 (S. aureus 10): 18.3 mg/kg
Death (%) (S. aureus 10; [4]): 80%
Survival Rate (%) (S. aureus 10; [4]): 20%
Death (%) (S. aureus 10; [9]): 70%
Survival Rate (%) (S. aureus 10; [9]): 30%
Death (%) (S. aureus 10; [10]): 60%
Survival Rate (%) (S. aureus 10; [10]): 40%
Death (%) (S. aureus 10; [11]): 40%
Survival Rate (%) (S. aureus 10; [11]): 60%
Death (%) (S. aureus 10; [12]): 40%
Survival Rate (%) (S. aureus 10; [12]): 60%
Death (%) (S. aureus 10; [13]): 20%
Survival Rate (%) (S. aureus 10; [13]): 80%
Death (%) (S. aureus 10; [14]): 30%
Survival Rate (%) (S. aureus 10; [14]): 70%
LD50 [1]: 41.8 mg/kg
MTD [1]: 34.1 mg/kg
lethal dose causing the death of more than 50% of the animals (SHK mice; intravenous): 35 to 50 mg/kg
time of death of animals after administration (SHK mice; intravenous, in words): in the first two hours after administration
LD16 (SHK mice): 35.8 mg/kg
LD84 (SHK mice): 47.7 mg/kg
LD100 (SHK mice): 50.7 mg/kg

C[C@H]1COc2c(N3CCN(C)CC3)c(F)cc3c(=O)c(C(=O)O)cn1c23 [Levofloxacin, levofloxacin, reference compound]
ED50 (S. aureus 10): 3.5 mg/kg
Death (%) (S. aureus 10; [15]): 90%
Survival Rate (%) (S. aureus 10; [15]): 10%
Death (%) (S. aureus 10; [16]): 60%
Survival Rate (%) (S. aureus 10; [16]): 40%
Death (%) (S. aureus 10; [17]): 40%
Survival Rate (%) (S. aureus 10; [17]): 60%
Death (%) (S. aureus 10; [18]): 30%
Survival Rate (%) (S. aureus 10; [18]): 70%
dose that saved the lives of 50% of infected animals (S. aureus 10; single injection): about 4 mg/kg
